Measured values: patent US20250186437A1, “CARBOLINE COMPOUNDS AND USE THEREOF” (PTC Therapeutics, Inc., priority 2021, published 2025)

Tested on: MOLM-13 cells
Assay: MOLM-13 Cell Proliferation Assay (indicator of DHODH inhibition)
Format: cell-based
Settings: Homo sapiens, 72 Hours of culture, CellTiter-Glo, no uridine
Procedure, shortened: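 Low-passage MOLM-13 cells (10^4/well) in RPMI 1640 + 10% FBS exposed to compound (0.5% DMSO final) for 72 h at 37 °C, 5% CO2. Viability read by CellTiter-Glo luminescence; growth reflects de novo pyrimidine synthesis dependent on DHODH.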

SMILES | IC50 [nM]
Cc1cnc(N2CCc3c([nH]c4ccc(Cl)c(F)c34)C2c2ccc(C)c(F)c2F)nc1 (stereo not drawn) [Compound 137, 6-chloro-1-(2,3-difluoro-4-methylphenyl)-5-fluoro-2-(5-methylpyrimidin-2-yl)-2,3,4,9-tetrahydro-1H-pyrido[3,4-b]indole] | 2.4
Cc1ccc(C2c3[nH]c4cc(F)c(Cl)cc4c3CCN2c2ncc(F)cn2)c(F)c1F (stereo not drawn) [Compound 138, 6-chloro-1-(2,3-difluoro-4-methylphenyl)-7-fluoro-2-(5-fluoropyrimidin-2-yl)-2,3,4,9-tetrahydro-1H-pyrido[3,4-b]indole] | 3.5
Cc1ccnc(N2CCc3c([nH]c4cc(F)c(Cl)cc34)C2c2ccc(C)c(F)c2F)n1 (stereo not drawn) [Compound 139, 6-chloro-1-(2,3-difluoro-4-methylphenyl)-7-fluoro-2-(4-methylpyrimidin-2-yl)-2,3,4,9-tetrahydro-1H-pyrido[3,4-b]indole] | 3.6
Cc1ccc(C2c3[nH]c4cc(F)c(Cl)cc4c3CCN2c2nccc(C(F)(F)F)n2)c(F)c1F (stereo not drawn) [Compound 140, 6-chloro-1-(2,3-difluoro-4-methylphenyl)-7-fluoro-2-[4-(trifluoromethyl)pyrimidin-2-yl]-2,3,4,9-tetrahydro-1H-pyrido[3,4-b]indole] | 1
Cc1ccc(C2c3[nH]c4cc(F)c(Cl)cc4c3CCN2c2nccc(C#N)n2)c(F)c1F (stereo not drawn) [Compound 141, 2-[6-chloro-1-(2,3-difluoro-4-methylphenyl)-7-fluoro-1,3,4,9-tetrahydro-2H-pyrido[3,4-b]indol-2-yl]pyrimidine-4-carbonitrile] | 8.7
Cc1ccc(C2c3[nH]c4cc(F)c(Cl)cc4c3CCN2c2ncc(C(F)(F)F)cn2)c(F)c1F (stereo not drawn) [Compound 142, 6-chloro-1-(2,3-difluoro-4-methylphenyl)-7-fluoro-2-[5-(trifluoromethyl)pyrimidin-2-yl]-2,3,4,9-tetrahydro-1H-pyrido[3,4-b]indole] | 4.3
Cc1ccc(C2c3[nH]c4cc(F)c(Cl)cc4c3CCN2c2nc(C)c(F)c(C)n2)c(F)c1F (stereo not drawn) [Compound 143, 6-chloro-1-(2,3-difluoro-4-methylphenyl)-7-fluoro-2-(5-fluoro-4,6-dimethylpyrimidin-2-yl)-2,3,4,9-tetrahydro-1H-pyrido[3,4-b]indole] | 1.2
Fc1cncc(C2c3[nH]c4cc(F)c(Cl)cc4c3CCN2c2nccc(C(F)(F)F)n2)c1 (stereo not drawn) [Compound 145, 6-chloro-7-fluoro-1-(5-fluoropyridin-3-yl)-2-[4-(trifluoromethyl)pyrimidin-2-yl]-2,3,4,9-tetrahydro-1H-pyrido[3,4-b]indole] | 17.2
Fc1cncc(C2c3[nH]c4ccc(Cl)c(F)c4c3CCN2c2nccc(C(F)(F)F)n2)c1 (stereo not drawn) [Compound 146, 6-chloro-5-fluoro-1-(5-fluoropyridin-3-yl)-2-[4-(trifluoromethyl)pyrimidin-2-yl]-2,3,4,9-tetrahydro-1H-pyrido[3,4-b]indole] | 11.4
Cc1cc(C(F)(F)F)nc(N2CCc3c([nH]c4cc(F)c(Cl)cc34)C2c2cccc(F)c2F)n1 (stereo not drawn) [Compound 147, 6-chloro-1-(2,3-difluorophenyl)-7-fluoro-2-[4-methyl-6-(trifluoromethyl)pyrimidin-2-yl]-2,3,4,9-tetrahydro-1H-pyrido[3,4-b]indole] | 1.3
Cc1cc(C(F)(F)F)nc(N2CCc3c([nH]c4cc(F)c(Cl)cc34)C2c2ccc(C)c(F)c2F)n1 (stereo not drawn) [Compound 148, 6-chloro-1-(2,3-difluoro-4-methylphenyl)-7-fluoro-2-[4-methyl-6-(trifluoromethyl)pyrimidin-2-yl]-2,3,4,9-tetrahydro-1H-pyrido[3,4-b]indole] | 0.9
NS(=O)(=O)c1ccc(C2c3[nH]c4ccc(Cl)c(F)c4c3CCN2c2nccc(C(F)(F)F)n2)cc1 (stereo not drawn) [Compound 150, 4-{6-chloro-5-fluoro-2-[4-(trifluoromethyl)pyrimidin-2-yl]-2,3,4,9-tetrahydro-1H-pyrido[3,4-b]indol-1-yl}benzene-1-sulfonamide] | 8.9
Cc1ccc(C2c3[nH]c4cc(F)c(Cl)cc4c3CCN2c2nc(C)cc(C#N)n2)cc1 (stereo not drawn) [Compound 151, 2-[6-chloro-7-fluoro-1-(4-methylphenyl)-1,3,4,9-tetrahydro-2H-pyrido[3,4-b]indol-2-yl]-6-methylpyrimidine-4-carbonitrile] | 4.5
Cc1cc(C#N)nc(N2CCc3c([nH]c4cc(F)c(Cl)cc34)C2c2cccc(F)c2F)n1 (stereo not drawn) [Compound 152, 2-[6-chloro-1-(2,3-difluorophenyl)-7-fluoro-1,3,4,9-tetrahydro-2H-pyrido[3,4-b]indol-2-yl]-6-methylpyrimidine-4-carbonitrile] | 3.7
Cc1cc(C#N)nc(N2CCc3c([nH]c4cc(F)c(Cl)cc34)C2c2ccc(C)c(F)c2F)n1 (stereo not drawn) [Compound 153, 2-[6-chloro-1-(2,3-difluoro-4-methylphenyl)-7-fluoro-1,3,4,9-tetrahydro-2H-pyrido[3,4-b]indol-2-yl]-6-methylpyrimidine-4-carbonitrile] | 1.1
Cc1ccc(C2c3[nH]c4cc(F)c(Cl)cc4c3CCN2c2nc(C(F)(F)F)cc(C(F)(F)F)n2)cc1 (stereo not drawn) [Compound 154, 2-[4,6-bis(trifluoromethyl)pyrimidin-2-yl]-6-chloro-7-fluoro-1-(4-methylphenyl)-2,3,4,9-tetrahydro-1H-pyrido[3,4-b]indole] | 0.9
Cc1ccc(C2c3[nH]c4cc(F)c(Cl)cc4c3CCN2c2nc(C(F)(F)F)cc(C(F)(F)F)n2)c(F)c1F (stereo not drawn) [Compound 155, 2-[4,6-bis(trifluoromethyl)pyrimidin-2-yl]-6-chloro-1-(2,3-difluoro-4-methylphenyl)-7-fluoro-2,3,4,9-tetrahydro-1H-pyrido[3,4-b]indole] | 0.5
OCCCc1ccc(C2c3[nH]c4cc(F)c(Cl)cc4c3CCN2c2nccc(C(F)(F)F)n2)cc1 (stereo not drawn) [Compound 156, 3-(4-{6-chloro-7-fluoro-2-[4-(trifluoromethyl)pyrimidin-2-yl]-2,3,4,9-tetrahydro-1H-pyrido[3,4-b]indol-1-yl}phenyl)propan-1-ol] | 4
CN(C)c1ncc(C2c3[nH]c4cc(F)c(Cl)cc4c3CCN2c2nccc(C(F)(F)F)n2)cc1F (stereo not drawn) [Compound 158, 5-{6-chloro-7-fluoro-2-[4-(trifluoromethyl)pyrimidin-2-yl]-2,3,4,9-tetrahydro-1H-pyrido[3,4-b]indol-1-yl}-3-fluoro-N,N-dimethylpyridin-2-amine] | 9.8
OCCCc1ccc(C2c3[nH]c4cc(F)c(Cl)cc4c3CCN2c2ncc(F)cn2)cc1 (stereo not drawn) [Compound 159, 3-{4-[6-chloro-7-fluoro-2-(5-fluoropyrimidin-2-yl)-2,3,4,9-tetrahydro-1H-pyrido[3,4-b]indol-1-yl]phenyl}propan-1-ol] | 27.1
CN(C)c1ncc(C2c3[nH]c4ccc(Cl)c(F)c4c3CCN2c2nccc(C(F)(F)F)n2)cc1F (stereo not drawn) [Compound 160, 5-{6-chloro-5-fluoro-2-[4-(trifluoromethyl)pyrimidin-2-yl]-2,3,4,9-tetrahydro-1H-pyrido[3,4-b]indol-1-yl}-3-fluoro-N,N-dimethylpyridin-2-amine] | 3.5
Cc1ccc([C@H]2c3[nH]c4ccc(Cl)cc4c3CCN2c2nccc(C(F)(F)F)n2)cc1 [Compound 161, (1S)-6-chloro-1-(4-methylphenyl)-2-[4-(trifluoromethyl)pyrimidin-2-yl]-2,3,4,9-tetrahydro-1H-pyrido[3,4-b]indole] | 1.2
Cc1ccc(C2c3[nH]c4cc(F)c(Cl)cc4c3CCN2c2ncc(F)c(C#N)n2)c(F)c1F (stereo not drawn) [Compound 162, 2-[6-chloro-1-(2,3-difluoro-4-methylphenyl)-7-fluoro-1,3,4,9-tetrahydro-2H-pyrido[3,4-b]indol-2-yl]-5-fluoropyrimidine-4-carbonitrile] | 2.4
Cc1ccc(C2c3[nH]c4cc(F)c(Cl)cc4c3CCN2c2nc(C)c(C)c(C)n2)cc1 (stereo not drawn) [Compound 163, 6-chloro-7-fluoro-1-(4-methylphenyl)-2-(4,5,6-trimethylpyrimidin-2-yl)-2,3,4,9-tetrahydro-1H-pyrido[3,4-b]indole] | 10.9
COC(=O)CCc1ccc(C2c3[nH]c4cc(F)c(Cl)cc4c3CCN2c2nccc(C(F)(F)F)n2)cc1 (stereo not drawn) [Compound 164, methyl 3-(4-{6-chloro-7-fluoro-2-[4-(trifluoromethyl)pyrimidin-2-yl]-2,3,4,9-tetrahydro-1H-pyrido[3,4-b]indol-1-yl}phenyl)propanoate] | 4
COC(=O)CCc1ccc(C2c3[nH]c4cc(F)c(Cl)cc4c3CCN2c2ncc(F)cn2)cc1 (stereo not drawn) [Compound 165, methyl 3-{4-[6-chloro-7-fluoro-2-(5-fluoropyrimidin-2-yl)-2,3,4,9-tetrahydro-1H-pyrido[3,4-b]indol-1-yl]phenyl}propanoate] | 16.7
OCc1ccc(C2c3[nH]c4cc(F)c(Cl)cc4c3CCN2c2nccc(C(F)(F)F)n2)cc1 (stereo not drawn) [Compound 166, (4-{6-chloro-7-fluoro-2-[4-(trifluoromethyl)pyrimidin-2-yl]-2,3,4,9-tetrahydro-1H-pyrido[3,4-b]indol-1-yl}phenyl)methanol] | 7.1
OCC/C=C/c1ccc(C2c3[nH]c4cc(F)c(Cl)cc4c3CCN2c2nccc(C(F)(F)F)n2)cc1 (stereo not drawn) [Compound 167, (3E)-4-(4-{6-chloro-7-fluoro-2-[4-(trifluoromethyl)pyrimidin-2-yl]-2,3,4,9-tetrahydro-1H-pyrido[3,4-b]indol-1-yl}phenyl)but-3-en-1-ol] | 1.1
OCCCCc1ccc(C2c3[nH]c4cc(F)c(Cl)cc4c3CCN2c2nccc(C(F)(F)F)n2)cc1 (stereo not drawn) [Compound 168, 4-(4-{6-chloro-7-fluoro-2-[4-(trifluoromethyl)pyrimidin-2-yl]-2,3,4,9-tetrahydro-1H-pyrido[3,4-b]indol-1-yl}phenyl)butan-1-ol] | 4.1
Cc1ccc(C2c3[nH]c4cc(F)c(Cl)cc4c3CCN2c2nc(C)c(C)c(C)n2)c(F)c1F (stereo not drawn) [Compound 169, 6-chloro-1-(2,3-difluoro-4-methylphenyl)-7-fluoro-2-(4,5,6-trimethylpyrimidin-2-yl)-2,3,4,9-tetrahydro-1H-pyrido[3,4-b]indole] | 2.2
